For 25 molecules, inhibition, IC50 and selectivity ratio results are on record in ChEMBL document CHEMBL5236635, “Structure-Based Drug Design and Synthesis of Novel N-Aryl-2,4-bithiazole-2-amine CYP1B1-Selective Inhibitors in Overcoming Taxol Resistance in A549 Cells” (J Med Chem, 2022).

In data set [1] the target is T1, CYP1B1 (Homo sapiens, UniProt Q16678).
T1 sequence (Q16678 whole entry): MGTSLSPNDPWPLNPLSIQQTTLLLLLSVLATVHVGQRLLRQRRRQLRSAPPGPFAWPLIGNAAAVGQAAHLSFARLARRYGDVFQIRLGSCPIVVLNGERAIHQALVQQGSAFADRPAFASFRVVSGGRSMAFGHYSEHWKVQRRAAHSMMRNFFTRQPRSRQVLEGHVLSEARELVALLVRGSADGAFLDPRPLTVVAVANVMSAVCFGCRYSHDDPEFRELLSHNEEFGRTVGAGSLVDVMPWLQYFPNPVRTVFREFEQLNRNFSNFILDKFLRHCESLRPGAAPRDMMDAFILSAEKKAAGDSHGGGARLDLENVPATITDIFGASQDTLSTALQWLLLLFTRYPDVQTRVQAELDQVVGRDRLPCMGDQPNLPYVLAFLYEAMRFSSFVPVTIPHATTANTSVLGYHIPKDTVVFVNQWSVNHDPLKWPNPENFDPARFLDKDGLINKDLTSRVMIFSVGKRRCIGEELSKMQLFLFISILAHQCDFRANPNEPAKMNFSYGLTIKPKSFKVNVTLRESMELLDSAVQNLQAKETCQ
Kind of data set: Inhibition of recombinant human CYP1B1 assessed as inhibition ratio at 100 nM using 7-ethyl-0-resorufin as substrate incubated for 30 mins in presence of NADPH by EROD assay relative to control. Particulars: recombinant human CYP1B1, probe 7-ethyl-0-resorufin.

In data set [2] the target is T2, Cytochrome P450 1A1 (Homo sapiens, UniProt P04798).
T2 sequence (P04798 whole entry): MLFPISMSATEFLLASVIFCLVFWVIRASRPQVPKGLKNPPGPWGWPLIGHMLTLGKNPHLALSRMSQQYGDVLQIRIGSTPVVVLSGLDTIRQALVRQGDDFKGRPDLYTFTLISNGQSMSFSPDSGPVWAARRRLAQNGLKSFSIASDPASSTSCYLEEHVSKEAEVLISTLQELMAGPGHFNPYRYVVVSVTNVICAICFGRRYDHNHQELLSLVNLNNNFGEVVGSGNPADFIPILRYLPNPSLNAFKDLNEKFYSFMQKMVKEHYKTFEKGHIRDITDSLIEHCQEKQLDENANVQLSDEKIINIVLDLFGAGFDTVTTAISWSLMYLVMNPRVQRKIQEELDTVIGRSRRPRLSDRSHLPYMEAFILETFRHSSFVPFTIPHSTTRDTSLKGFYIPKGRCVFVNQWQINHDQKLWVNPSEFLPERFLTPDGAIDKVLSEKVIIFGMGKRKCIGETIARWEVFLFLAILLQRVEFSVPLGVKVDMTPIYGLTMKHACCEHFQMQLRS
Kind of data set: Inhibition of recombinant human CYP1A1 using 7-ethyl-0-resorufin as substrate incubated for 30 mins in presence of NADPH by EROD assay.

Data set [3] relates to CYP1A1 versus CYP1B1. Nature of the data set: Selectivity index, ratio of IC50 for inhibition of recombinant human CYP1A1 to IC50 for inhibition of recombinant human CYP1B1. Particulars: recombinant human CYP1A1 and recombinant human CYP1B1.
Data set [4] relates to CYP1A2 versus CYP1B1. Kind of data set: Selectivity index, ratio of IC50 for inhibition of recombinant human CYP1A2 to IC50 for inhibition of recombinant human CYP1B1. As to conditions: recombinant human CYP1A2 and recombinant human CYP1B1.
In data set [5] the target is T3, Cytochrome P450 1A2 (Homo sapiens, UniProt P05177).
T3 sequence (P05177 whole entry): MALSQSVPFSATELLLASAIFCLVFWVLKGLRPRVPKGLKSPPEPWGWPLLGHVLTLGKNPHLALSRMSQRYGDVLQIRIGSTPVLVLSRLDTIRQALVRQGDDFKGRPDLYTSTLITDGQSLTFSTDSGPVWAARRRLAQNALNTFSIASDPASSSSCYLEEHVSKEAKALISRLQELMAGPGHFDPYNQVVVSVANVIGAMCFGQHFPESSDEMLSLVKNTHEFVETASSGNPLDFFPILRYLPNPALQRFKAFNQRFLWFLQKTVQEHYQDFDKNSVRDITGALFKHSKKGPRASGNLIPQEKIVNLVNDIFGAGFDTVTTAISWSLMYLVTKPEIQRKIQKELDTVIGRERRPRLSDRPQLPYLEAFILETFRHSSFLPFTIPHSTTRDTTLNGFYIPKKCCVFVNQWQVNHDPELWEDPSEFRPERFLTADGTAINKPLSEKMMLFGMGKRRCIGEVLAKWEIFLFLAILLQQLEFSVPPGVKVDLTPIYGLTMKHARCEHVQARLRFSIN
Nature of the data set: Inhibition of recombinant human CYP1A2 using 7-ethyl-0-resorufin as substrate incubated for 30 mins in presence of NADPH by EROD assay.

Data set [6] concerns the target T4, Cytochrome P450 1B1 (Homo sapiens, UniProt Q16678).
T4 sequence (Q16678 whole entry): T1 sequence (Q16678 whole entry)
Kind of data set: Inhibition of recombinant human CYP1B1 using 7-ethyl-0-resorufin as substrate incubated for 30 mins in presence of NADPH by EROD assay.

Regarding `Clc1ccc(Nc2nc(-c3nccs3)cs2)cc1`, in data set [1], the inhibition at 0.5 h, 0.1 µM turned out to be 90%. For the same molecule, the IC50 in data set [2] was 586 nM; in data set [5] it was 119 nM; in data set [6], 6.31 nM. Also, the selectivity ratio was 92.9 in data set [3] and 18.8 in data set [4].

`c1cn(Cc2ccc(Nc3nc(-c4nccs4)cs3)cc2)cn1`: in data set [1], the inhibition at 0.5 h, 0.1 µM worked out at 99.7%. In addition, the IC50 in data set [2] was found to be 70.4 nM; in data set [5], 48.5 nM; in data set [6], 4.96 nM. The selectivity ratio in data set [3] is 14.1; in data set [4], 9.7.

With `C#CCOc1ccccc1-c1csc(-c2csc(Nc3cc(OC)cc(OC)c3)n2)n1`, the IC50 in data set [2] is 271 nM; in data set [5] it was 916 nM; in data set [6] it was 77.6 nM. Moreover, the selectivity ratio in data set [3] came out at 3.49; in data set [4], 11.8.

Regarding `Clc1cc(Cl)cc(Nc2nc(-c3nc(-c4cccnc4)cs3)cs2)c1`, the values for the IC50 in data set [2], in data set [5] and in data set [6] were 387 nM, 227 nM and 33.1 nM, respectively. Also, the selectivity ratio in data set [3] came to 11.7; in data set [4], 6.85.

As for `Clc1cc(Cl)cc(Nc2nc(-c3nc(-c4ccncc4)cs3)cs2)c1`, the IC50 was 1020 nM in data set [2], 2340 nM in data set [5] and 14.4 nM in data set [6]. For the same molecule, the selectivity ratio amounted to 70.4 in data set [3] and 162 in data set [4].

Consider `Cc1sc(-c2csc(Nc3cccc(F)c3)n2)nc1-c1ccncc1`, for which the results for the IC50 in data set [2], in data set [5] and in data set [6] were 105 nM, 230 nM and 73.3 nM, respectively. For the same molecule, the selectivity ratio in data set [3] was determined as 1.43; in data set [4] it was 3.14.

`Clc1cc(Nc2nc(-c3nccs3)cs2)cc(Cl)c1Cl`: the inhibition at 0.5 h, 0.1 µM in data set [1] came out at 100%. Moreover, the IC50 worked out at 482 nM in data set [2], 483 nM in data set [5] and 7.45 nM in data set [6]. Also, the selectivity ratio in data set [3] worked out at 64.7; in data set [4] it was 64.8.

Take `c1ccc(-c2csc(-c3csc(Nc4ccc(N5CCOCC5)cc4)n3)n2)cc1`: the IC50 in data set [2] came to 334 nM; in data set [5], 2860 nM; in data set [6], 11.6 nM. For the same molecule, the values for the selectivity ratio in data set [3] and in data set [4] were 28.9 and 247, respectively.

Take `CCc1sc(-c2csc(Nc3ccc(N4CCOCC4)cc3)n2)nc1-c1ccncc1`: the figures for the IC50 in data set [2], in data set [5] and in data set [6] were 153 nM, 3450 nM and 155 nM, respectively. Further, the figures for the selectivity ratio in data set [3] and in data set [4] were 0.99 and 22.3, respectively.

As for `COc1cc(Nc2nc(-c3nc(-c4ccccc4)c(-c4ccccc4)s3)cs2)cc(OC)c1`, the IC50 in data set [2] is 524 nM; in data set [5] it was > 10000 nM; in data set [6], 86.2 nM. Also, the selectivity ratio in data set [3] was 6.08; in data set [4], > 116.

Turning to `COc1cc(Nc2nc(-c3nccs3)cs2)cc(OC)c1`, the inhibition at 0.5 h, 0.1 µM in data set [1] amounted to 90.7%. For the same molecule, the IC50 in data set [2] stood at 43.9 nM; in data set [5], 89 nM; in data set [6], 0.121 nM. Moreover, the selectivity ratio turned out to be 363 in data set [3] and 733 in data set [4].

In the case of `Fc1ccc(-c2csc(-c3csc(Nc4ccc(N5CCOCC5)cc4)n3)n2)cc1`, the figures for the IC50 in data set [2], in data set [5] and in data set [6] were 169 nM, 1560 nM and 1620 nM, respectively. Besides, the selectivity ratio in data set [3] amounted to 0.1; in data set [4], 0.97.

In the case of `c1csc(-c2csc(Nc3ccc(N4CCOCC4)cc3)n2)n1`, the inhibition at 0.5 h, 0.1 µM in data set [1] was found to be 87.7%. Besides, the values for the IC50 in data set [2], in data set [5] and in data set [6] were 994 nM, 1860 nM and 7.88 nM, respectively. In addition, the selectivity ratio was 126 in data set [3] and 236 in data set [4].

Regarding `Clc1cc(Cl)cc(Nc2nc(-c3nccs3)cs2)c1`, in data set [1], the inhibition at 0.5 h, 0.1 µM was found to be 97.2%. Also, the IC50 in data set [2] is 178 nM; in data set [5] it was 55.7 nM; in data set [6], 1.76 nM. The selectivity ratio in data set [3] amounted to 101; in data set [4], 31.5.

Turning to `Clc1cc(Cl)cc(Nc2nc(-c3nc(-c4ccccn4)cs3)cs2)c1`, the IC50 came out at 916 nM in data set [2], 5390 nM in data set [5] and 44.8 nM in data set [6]. Moreover, the selectivity ratio in data set [3] turned out to be 20.4; in data set [4], 120.

For the molecule `Clc1cc(Cl)cc(Nc2nc(-c3nc(-c4ccccc4)c(-c4ccccc4)s3)cs2)c1`, the IC50 in data set [2] worked out at 1920 nM; in data set [5], 381 nM; in data set [6] it was 39 nM. Further, the selectivity ratio in data set [3] was 49.3; in data set [4] it was 9.77.

In the case of `c1cncc(-c2csc(-c3csc(Nc4ccc(N5CCOCC5)cc4)n3)n2)c1`, the figures for the IC50 in data set [2], in data set [5] and in data set [6] were 22.4 nM, 2550 nM and 15.9 nM, respectively. The results for the selectivity ratio in data set [3] and in data set [4] were 1.4 and 160, respectively.

In the case of `COc1cc(Nc2nc(-c3nc(-c4ccccc4Cl)cs3)cs2)cc(OC)c1`, the IC50 in data set [2] was 323 nM; in data set [5], 1250 nM; in data set [6], 8.07 nM. Also, the selectivity ratio in data set [3] was 40; in data set [4], 155.

Take `Fc1ccccc1-c1csc(-c2csc(Nc3ccc(N4CCOCC4)cc3)n2)n1`: the IC50 in data set [2] was 110 nM; in data set [5] it was 5060 nM; in data set [6], 12.9 nM. Moreover, the selectivity ratio in data set [3] came out at 8.48; in data set [4] it was 392.

On to `Cc1sc(-c2csc(Nc3cc(Cl)cc(Cl)c3)n2)nc1-c1ccccc1`, for which the IC50 was 316 nM in data set [2], 313 nM in data set [5] and 23.3 nM in data set [6]. Further, the selectivity ratio is 13.5 in data set [3] and 13.4 in data set [4].

`c1cc(-c2csc(-c3csc(Nc4ccc(N5CCOCC5)cc4)n3)n2)ccn1`: the IC50 in data set [2] was 4460 nM; in data set [5], 312 nM; in data set [6], 153 nM. Besides, the selectivity ratio turned out to be 29.2 in data set [3] and 2.04 in data set [4].

Take `Cc1sc(-c2csc(Nc3ccc(N4CCOCC4)cc3)n2)nc1-c1ccncc1`: the IC50 in data set [2] stood at 276 nM; in data set [5] it was 1260 nM; in data set [6], 203 nM. Besides, the selectivity ratio is 1.36 in data set [3] and 6.2 in data set [4].

Regarding `c1csc(-c2csc(Nc3ccc4c(c3)OCO4)n2)n1`, the inhibition at 0.5 h, 0.1 µM in data set [1] stood at 97.6%. Besides, the IC50 in data set [2] was 93 nM; in data set [5], 78.5 nM; in data set [6], 9 nM. For the same molecule, the selectivity ratio in data set [3] is 10.3; in data set [4], 8.71.

Regarding `c1csc(-c2csc(Nc3ccc(Cn4cncn4)cc3)n2)n1`, the inhibition at 0.5 h, 0.1 µM in data set [1] was 92%. The results for the IC50 in data set [2], in data set [5] and in data set [6] were 166 nM, 141 nM and 9.09 nM, respectively. For the same molecule, the results for the selectivity ratio in data set [3] and in data set [4] were 18.2 and 15.4, respectively.

For `COc1ccc(-c2csc(-c3csc(Nc4cccc(F)c4)n3)n2)cc1OC`, the values for the IC50 in data set [2], in data set [5] and in data set [6] were 210 nM, 31.6 nM and 567 nM, respectively. The selectivity ratio came to 0.37 in data set [3] and 0.06 in data set [4].

Broadly, the inhibition is how much of the control response was suppressed. By IC50 is commonly meant the midpoint of a concentration-inhibition curve.
